From ChEMBL document CHEMBL1201862, “PubChem BioAssay data set” (2004) come the findings set out here.

Holding throughout (assay): NCI-60 cell line screen, 48 h
The subject of test [1] is ACHN.
Test [2] has as its system CAKI-1.
Test [3] relates to HCC 2998.
Test [4] relates to HT-29.
Test [5] relates to Hs-578T.
Test [6] relates to M14.
Test [7] concerns MDA-MB-231.
The subject of test [8] is Malme-3M.
Test [9] deals with NCI-H23.
Test [10] deals with NCI/ADR-RES.
Test [11] concerns OVCAR-5.
The test system of test [12] is PC-3.
Test [13] relates to SF-539.
The test system of test [14] is SK-OV-3.
Test [15] concerns UACC-257.
Test [16] has as its system HCT-15.
Test [17] concerns KM12.
In test [18] the test system is RPMI-8226.
The test system of test [19] is SK-MEL-28.
In test [20] the test system is SNB-19.

Molecules are shown by their SMILES.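 In this assay, cells in 96-well plates receive the compound at five concentrations for 48 hours. Endpoints are linearly interpolated between the surrounding concentrations. At the GI50, growth is halved.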 Active and inactive are the calls of the source. Rule as the data show it: active = GI50 up to about 1.1 µM and inactive = higher.

Consider `COc1c(-c2ccc(F)cc2)oc2c(CC(=O)O)cccc2c1=O`, for which the GI50 was > 100 µM (inactive) in [1]; 22.3 µM (inactive) in [2]; > 100 µM (inactive) in test [3]; > 100 µM (inactive) in test [4]; > 100 µM (inactive) in [5]; > 100 µM (inactive) in [6]. The GI50 was > 100 µM (inactive) in [7]; > 100 µM (inactive) in test [8]; 45.5 µM (inactive) in test [9]; > 100 µM (inactive) in test [10]; > 100 µM (inactive) in test [11]; > 100 µM (inactive) in [12]. For the same compound, the GI50 in test [13], in [14] and in [15] was > 100 µM (inactive) throughout.

On to `NC1CCC(N(CC(=O)O)CC(=O)O)C(N(CC(=O)O)CC(=O)O)C1` (centres undefined), for which the GI50 in test [1] is > 100 µM (inactive); in [2], > 100 µM (inactive); in test [3], > 100 µM (inactive); in test [16], above 100 µM; in test [4], > 100 µM (inactive); in test [5] it was > 100 µM (inactive). Besides, the GI50 in test [17], in test [7], in test [8], in test [9], in test [10] and in test [11] was > 100 µM (inactive) throughout. The GI50 in test [12], in test [18], in test [13], in [19], in test [14] and in test [20] was > 100 µM (inactive) throughout. Also, the GI50 in [15] was > 10 µM (inactive).

Consider `Nc1c2ccccc2nc2ccc3c(=O)cc(-c4ccccc4)oc3c12`, for which the GI50 in [1] was 1.12 µM (active); in test [2] it was 1.33 µM (inactive); in [3], 0.492 µM (active); in [16], 1.02 µM; in test [4], 0.465 µM (active); in test [5], 1.9 µM (inactive). Moreover, the GI50 in [17] is 0.596 µM (active); in [6], 1.21 µM (inactive); in [7], 1.14 µM (inactive); in test [8], 1.66 µM (inactive); in [9], 1.53 µM (inactive); in test [10] it was 1.35 µM (inactive). Further, the GI50 is 1.5 µM (inactive) in test [11]; 1.26 µM (inactive) in test [12]; 0.473 µM (active) in [18]; 1.33 µM (inactive) in test [13]; 1.55 µM (inactive) in [19]; 1.83 µM (inactive) in test [14]. Moreover, the GI50 in [20] was 1.26 µM (inactive); in test [15] it was 1.75 µM (inactive).

On to `COc1ccccc1NC(=O)CC(=O)NN`, for which the GI50 in test [1] is > 100 µM (inactive); in [2], > 100 µM (inactive); in test [3], 11.9 µM (inactive); in test [16], above 100 µM; in test [4], > 100 µM (inactive); in test [5], > 100 µM (inactive). Moreover, the GI50 in test [17] is > 100 µM (inactive); in test [7], > 100 µM (inactive); in test [8], > 100 µM (inactive); in [9], > 100 µM (inactive); in [10], 9.77 µM (inactive); in test [11], > 100 µM (inactive). Also, the GI50 in test [12], in test [18], in test [13], in test [19], in test [14] and in test [20] was > 100 µM (inactive) in each case. Also, in [15], the GI50 was > 100 µM (inactive).

Turning to `Nc1nc(N)c2c3c(cnc2n1)CC(c1ccccc1)CC3` (centres undefined), the GI50 was 5 µM (inactive) in test [1]; 28.1 µM (inactive) in test [2]; 34 µM (inactive) in [3]; 4.04 µM in test [16]; 5.66 µM (inactive) in test [4]; 30.2 µM (inactive) in [5]. Moreover, the GI50 was 23.9 µM (inactive) in test [17]; 3.24 µM (inactive) in test [6]; 21.4 µM (inactive) in [7]; 31.5 µM (inactive) in test [8]; 20.3 µM (inactive) in [10]; 14.3 µM (inactive) in [11]. In addition, the GI50 was 21.9 µM (inactive) in [12]; > 100 µM (inactive) in test [18]; 14.3 µM (inactive) in test [13]; 35.6 µM (inactive) in test [19]; 21.5 µM (inactive) in test [14]; 13.6 µM (inactive) in test [20]. In addition, the GI50 in [15] was 65.3 µM (inactive).

As to `COc1cc2c(cc1OC)C(=O)N(c1ccc(O)cc1)C2=O`, the GI50 in test [1] was > 100 µM (inactive); in test [2], > 100 µM (inactive); in test [3], > 100 µM (inactive); in test [16], above 100 µM; in [4] it was > 100 µM (inactive); in [5] it was > 100 µM (inactive). In addition, the GI50 in test [6], in test [7], in [8], in [9], in [10] and in test [11] was > 100 µM (inactive) in each case. Also, the GI50 in [12], in [18], in test [13], in test [19], in test [14] and in [20] was > 100 µM (inactive) in each case. For the same compound, the GI50 in test [15] is > 100 µM (inactive).

Take `COc1ccc2c(-c3ccc(OCCN(C)C)cc3)c(Oc3ccccc3)c(=O)oc2c1`: the GI50 in test [1] is 10.2 µM (inactive); in [2], 8.67 µM (inactive); in [3], 3.5 µM (inactive); in test [16] it was 3.48 µM; in test [4], 7.59 µM (inactive); in test [5] it was 6.18 µM (inactive). The GI50 in test [17] was 4.78 µM (inactive); in test [6] it was 1.64 µM (inactive); in test [7], 3.15 µM (inactive); in [8] it was 3.12 µM (inactive); in test [9], 12 µM (inactive); in test [10], 4.5 µM (inactive). The GI50 in test [11] was 14.2 µM (inactive); in test [12] it was 6.12 µM (inactive); in test [18] it was 4.25 µM (inactive); in [13] it was 3.91 µM (inactive); in test [19], 2.31 µM (inactive); in test [14], 6.27 µM (inactive). Further, the GI50 in test [20] is 5.86 µM (inactive); in test [15] it was 2.09 µM (inactive).

Take `COc1cccc(C2c3cc4c(cc3OC(C)(N3CCCC3)C2C)OCO4)c1` (centres undefined): the GI50 in test [1] is 17.6 µM (inactive); in [2], 17.1 µM (inactive); in [3], 13.1 µM (inactive); in test [16] it was 5.35 µM; in test [4], 3.77 µM (inactive); in test [5] it was 3.07 µM (inactive). For the same compound, the GI50 in test [17] is 4 µM (inactive); in test [6], 4.12 µM (inactive); in test [7], 7.78 µM (inactive); in [8] it was 11.6 µM (inactive); in test [9], 20.5 µM (inactive); in [10], 6.9 µM (inactive). The GI50 in [11] is 7.73 µM (inactive); in test [12], 16.3 µM (inactive); in test [13], 13.9 µM (inactive); in test [19], 20.3 µM (inactive); in test [14], 11.9 µM (inactive); in test [20], 21.9 µM (inactive). Also, in test [15], the GI50 is 18.2 µM (inactive).

With `O=c1oc2c([N+](=O)[O-])cc([N+](=O)[O-])cc2c2ccccc12`, the GI50 in test [1] is > 100 µM (inactive); in [2], > 100 µM (inactive); in test [3] it was > 100 µM (inactive); in [16] it was above 100 µM; in test [4] it was > 100 µM (inactive); in test [5], > 100 µM (inactive). For the same compound, the GI50 in test [6], in test [7], in [8], in [9], in test [10] and in test [11] was > 100 µM (inactive) in each case. Moreover, the GI50 in test [12], in [18], in test [13], in test [19], in [20] and in test [15] was > 100 µM (inactive) each time.

With `CSC(SC)=C(C#N)C(=O)Nc1cccc(Cl)c1`, the GI50 in test [1] is 75.2 µM (inactive); in test [2], 45.9 µM (inactive); in [3], 75.5 µM (inactive); in [16], 38.4 µM; in [4], 46.7 µM (inactive); in [5], > 100 µM (inactive). For the same compound, the GI50 in test [17] is > 100 µM (inactive); in [6], 47.8 µM (inactive); in test [7], > 100 µM (inactive); in test [8] it was 79.4 µM (inactive); in test [10], 32.5 µM (inactive); in [11] it was 98.2 µM (inactive). Also, the GI50 was 50.4 µM (inactive) in test [12]; 57.5 µM (inactive) in test [13]; 64.7 µM (inactive) in [19]; 65.8 µM (inactive) in test [14]; > 100 µM (inactive) in test [20]; > 100 µM (inactive) in [15].

On to `COc1cc2c(c(OC)c1O)-c1ccc(OC)c(=O)cc1[C@@H](NC(=O)C(F)(F)F)CC2`, for which the GI50 in test [1] was 0.745 µM (active); in test [2] it was 0.405 µM (active); in test [3] it was 0.307 µM (active); in test [16], 1.16 µM; in [4], 0.0333 µM (active); in [5] it was 0.019 µM (active). The GI50 was 0.0482 µM (active) in test [17]; 0.0634 µM (active) in [6]; 0.0413 µM (active) in test [7]; 0.0641 µM (active) in [8]; 0.0809 µM (active) in test [9]; 3.72 µM (inactive) in [10]. The GI50 in [12] was 0.0706 µM (active); in test [18], 0.0252 µM (active); in test [13] it was 0.0243 µM (active); in test [14] it was 0.191 µM (active); in test [20] it was 0.0975 µM (active); in test [15], > 100 µM (inactive).
